Columns and labels:
HPK1 [1] = biological target: HPK1 (Homo sapiens, UniProt Q92918); assay: SLP76 phosphorylation assay (intracellular HPK1 inhibitory activity, p-SLP76 S376 ELISA in Jurkat cells); conditions: p-SLP76 IC50, Jurkat, Clone E6-1 cells; 1 h compound pre-incubation; anti-CD3 beads stimulation 20 min; Phospho-SLP-76 (Ser376) ELISA
Target sequence in this assay (Q92918 whole entry): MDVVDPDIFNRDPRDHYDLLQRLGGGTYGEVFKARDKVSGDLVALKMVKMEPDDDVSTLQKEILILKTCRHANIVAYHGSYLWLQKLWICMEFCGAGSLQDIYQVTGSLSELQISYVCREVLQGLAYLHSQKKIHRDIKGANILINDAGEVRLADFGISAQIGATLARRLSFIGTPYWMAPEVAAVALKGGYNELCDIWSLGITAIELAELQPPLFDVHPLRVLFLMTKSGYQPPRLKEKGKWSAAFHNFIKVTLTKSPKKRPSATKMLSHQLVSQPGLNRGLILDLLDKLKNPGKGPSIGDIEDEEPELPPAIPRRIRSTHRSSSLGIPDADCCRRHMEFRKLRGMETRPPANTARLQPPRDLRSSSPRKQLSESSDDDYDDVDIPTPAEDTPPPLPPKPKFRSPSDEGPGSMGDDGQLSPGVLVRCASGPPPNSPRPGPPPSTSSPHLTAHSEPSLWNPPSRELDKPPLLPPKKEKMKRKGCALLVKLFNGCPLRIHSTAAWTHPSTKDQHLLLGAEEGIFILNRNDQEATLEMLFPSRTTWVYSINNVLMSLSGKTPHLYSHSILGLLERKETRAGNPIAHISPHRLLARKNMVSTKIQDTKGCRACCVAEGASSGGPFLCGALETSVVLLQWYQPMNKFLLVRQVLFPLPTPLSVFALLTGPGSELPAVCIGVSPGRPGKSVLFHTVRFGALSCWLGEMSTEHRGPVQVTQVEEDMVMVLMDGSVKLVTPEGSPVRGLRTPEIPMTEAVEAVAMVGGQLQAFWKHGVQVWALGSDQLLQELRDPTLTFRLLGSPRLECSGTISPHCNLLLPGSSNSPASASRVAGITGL

HPK1 [2] = biological target: T1, HPK1 (Homo sapiens, UniProt Q92918); assay: HPK1 kinase activity assay (ADP-Glo); conditions: HPK1 Kinase activity IC50, ADP-Glo; 1 nM HPK1, 10 μM ATP, 0.1 μg/μL MBP
T1 sequence (Q92918 1-346): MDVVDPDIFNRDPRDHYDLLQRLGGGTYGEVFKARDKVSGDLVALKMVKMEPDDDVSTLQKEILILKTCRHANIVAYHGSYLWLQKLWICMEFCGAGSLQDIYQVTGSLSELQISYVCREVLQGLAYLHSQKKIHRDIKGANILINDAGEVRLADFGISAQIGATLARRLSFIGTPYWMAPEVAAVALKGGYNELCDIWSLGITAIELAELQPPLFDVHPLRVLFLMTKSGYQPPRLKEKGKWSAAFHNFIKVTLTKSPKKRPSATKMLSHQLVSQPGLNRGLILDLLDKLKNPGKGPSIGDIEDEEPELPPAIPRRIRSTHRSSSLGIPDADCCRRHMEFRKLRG
Protocol: Preparation of buffer: Ix reaction buffer (40 mM Tris-HCl, 20 mM MgCl2, 0.01% Brij35, 50 μM DTT, 0.1 mg/ml BSA) was prepared using sterile water, which was prepared and used on the day of the experiment.
Preparation of 1000× drug stock plate: a 1000× compound stock plate was prepared. […] The compound stock plate was sealed with a sealing film and stored in a −20° C. refrigerator for later use.
Compound preparation and dosing: the 1000× drug stock plate was taken and melted at room temperature in the dark. Then 5× drug intermediate plate was prepared using reaction buffer and mixed well. 2 μL was transferred from the 5× drug intermediate plate into a 384-well plate, and negative control well and positive control well (in which 2 μL reaction buffer containing 0.5% DMSO was added) were set. Each point was repeated twice.
Preparation and incubation of reaction mixture: HPK1 protein was diluted to a 2.5× working solution with reaction buffer. 4 μL 2.5×HPK1 protein was added to each well containing test compound and positive control well, and 4 μL of reaction buffer without HPK1 protein was added to the negative control well. The obtained mixture was centrifuged at 1000 rpm for 1 min and then incubated in a 20° C. incubator for 15 min. A 2.5× mixed working solution of MBP protein and ATP was prepared with reaction buffer at concentrations of 0.5 μg/μL and 50 μM, respectively. 4 μL of the mixed working solution of MBP and ATP was added to each well, centrifuged at 1000 rpm for 1 min, and then incubated in a 20° C. incubator for 90 min.
ADP-Glo detection and reading plate: 10 μl ADP-Glo was added to each well of the test plate. The resulting mixture was centrifuged at 1000 rpm for 1 min and incubated in a 20° C. incubator for 60 min. Then 10 μL of the final incubation solution was transferred from the test plate to a new 384-well plate. 10 μL of kinase detection reagent was added to each well, centrifuged at 400 g for 1 min, and incubated in a 20° C. incubator for 60 min Chemiluminescent signals were read by a microplate reader.

| IC50 (HPK1 [1]) [nM] | IC50 (HPK1 [2]) [nM] | SMILES |
| --- | --- | --- |
| 321 | 0.69 | Cc1c[nH]c2ncc(-c3cc4c(c([C@@H]5CCCN5)c3)CN(C(=O)[C@@H](O)c3cccnc3)CC4)cc12 (single isomer, unassigned) [Compound Z288] |
| 98.9 | 0.37 | O=C(N1CCc2cc(-c3cnc4[nH]cc(C(F)(F)F)c4c3)cc([C@@H]3COCCN3)c2C1)N1C2CCC1COC2 [Compound Z611] |
| 67 | 0.21 | CCc1c[nH]c2ncc(-c3cc4c(c([C@@H]5COCCN5)c3)CN(C(=O)C(C)(C)O)CC4)cc12 [Compound Z476, (R)-1-(6-(3-ethyl-1H-pyrrolo[2,3-b]pyridin-5-yl)-8-(morpholin-3-yl)-3,4-dihydroisoquinolin-2(1H)-yl)-2-hydroxy-2-methylpropan-1-one] |
| 125 | 0.06 | Cc1c[nH]c2ncc(-c3cc4c(c([C@@H]5COCCN5)c3)CN(C(=O)[C@H]3CCOC3)CC4)cc12 [Compound Z469, [6-(3-methyl-1H-pyrrolidine[2,3-b]pyridin-5-yl)-8-[(R)-morpholin-3-yl]-3,4-dihydroisoquinolin-2(1H)-yl]-[(S)-tetrahydrofuran-3-yl]methanone] |
| 108 | 0.36 | O=C(N1CCc2cc(-c3cnc4[nH]cc(Cl)c4c3)cc([C@@H]3COCCN3)c2C1)N1CC[C@H](F)C1 [Compound Z604, (6-(3-chloro-1H-pyrrolo[2,3-b]pyridin-5-yl)-8-((R)-morpholin-3-yl)-3,4-dihydroisoquinolin-2(1H)-yl)((S)-3-fluoropyrrolidin-1-yl)methanone] |
| 28 | 0.16 | Cc1c[nH]c2ncc(-c3cc4c(c([C@@H]5COCCN5)c3)CN(C(=O)N3CC5CCC(C3)O5)CC4)nc12 [Compound Z572, (8-oxa-3-50 azabicyclo[3.2.1]octan-3-yl)(6-(7-methyl-5H-pyrrolo[2,3-b]pyrazin-2-yl)-8-((R)-morpholin-3-yl)-3,4-dihydroisoquinolin-2(1H)-yl)methanone] |
| 158 | 0.22 | Cc1c[nH]c2ncc(-c3cc4c(c([C@@H]5COCCN5)c3)CN(C(=O)C3(O)CCOCC3)CC4)cc12 [Compound Z450] |
| 428 | 1.12 | CCc1c(Cl)[nH]c2ncc(-c3cc4c(c([C@@H]5CCCN5)c3)CN(C(=O)COC)CC4)cc12 [Compound Z411] |
| 430 | 1.66 | Cc1c[nH]c2ncc(-c3cc4c(c([C@@H]5CCCN5)c3)CN(C(=O)N3CCOC(C(F)(F)F)C3)CC4)cc12 (single isomer, unassigned) [Compound Z490] |
| 95.7 | 0.18 | Cc1c[nH]c2ncc(-c3cc4c(c([C@@H]5COCCN5)c3)CN(C(=O)N3C5CCC3COC5)CC4)cc12 [Compound Z492, (3-oxa-8-azabicyclo[3.2.1]octan-8-yl)(6-(3-methyl-1H-pyrrolo[2,3-b]pyridin-5-yl)-8-((R)-morpholin-3-yl)-3,4-dihydroisoquinolin-2(1H)-yl)methanone] |
| 258 | 0.59 | Cc1c[nH]c2ncc(-c3cc4c(c([C@@H]5COCCN5)c3)CN(C(=O)C3CCOCC3)CC4)cc12 [Compound Z375] |
| 143 | 0.24 | CC(C)(O)C(=O)N1CCc2cc(-c3cnc4[nH]cc(C(F)(F)F)c4c3)cc([C@@H]3COCCN3)c2C1 [Compound Z473, (R)-2-hydroxy-2-methyl-1-(8-(morpholin-3-yl)-6-(3-(trifluoromethyl)-1H-pyrrolo[2,3-b]pyridin-5-yl)-3,4-dihydroisoquinolin-2(1H)-yl)propan-1-one] |
| 62.9 | 0.25 | O=C(N1CCc2cc(-c3cnc4[nH]cc(C(F)(F)F)c4n3)cc([C@@H]3COCCN3)c2C1)N1CC2CCC(C1)O2 [Compound Z606, (8-oxa-3-azabicyclo[3.2.1]octan-3-yl)(8-((R)-morpholin-3-yl)6-(7-(trifluoromethyl)-5H-pyrrolo[2,3-b]pyrazin-2-yl)-3,4-dihydroisoquinolin-2(1H)-yl)methanone] |
| 61.6 | 0.25 | Cc1c[nH]c2ncc(-c3cc4c(c([C@@H]5COCCN5)c3)CN(C(=O)N3C[C@@H]5CC[C@H]3CO5)CC4)cc12 (single isomer, unassigned) [Compound Z644] |
| 148 | 0.35 | Cc1c[nH]c2ncc(-c3cc4c(c([C@@H]5COCCN5)c3)CN(C(=O)N3C[C@H](C)O[C@@H](C)C3)CC4)cc12 [Compound Z512, ((2S,6S)-2,6-dimethylmorpholine)(6-(3-methyl-1H-pyrrolo[2,3-b]pyridin-5-yl)-8-((R)-morpholin-3-yl)-3,4-dihydroisoquinolin-2-1H-yl)methanone] |
| 103 | 0.08 | Cc1c[nH]c2ncc(-c3cc4c(c([C@@H]5COCCN5)c3)CN(C(=O)N3C[C@@H](C)O[C@H](C)C3)CC4)nc12 [Compound Z600] |
| 33.7 | 0.16 | CC(C)c1c[nH]c2ncc(-c3cc4c(c([C@@H]5COCCN5)c3)CN(C(=O)C(C)(C)O)CC4)nc12 [Compound Z541, (R)-2-hydroxy-1-(6-(7-isopropyl-5H-pyrrolo[2,3-b]pyrazin-2-yl)-8-(morpholin-3-yl)-3,4-dihydroisoquinolin-2(1H)-yl)-2-methylpropan-1-one] |
| 83.9 | 0.41 | Cc1c[nH]c2ncc(-c3cc4c(c([C@@H]5COCCN5)c3)CN(C(=O)N3CCOC[C@@H]3C)CC4)nc12 [Compound Z574, (6-(7-methyl-5H-pyrrolo[2,3-b]pyrazin-2-yl)-8-((R)-morpholin-3-yl)-3,4-dihydroisoquinolin-2(1H)-yl)((S)-3-methylmorpholine)methanone] |
| 186 | 0.4 | Cc1c[nH]c2ncc(-c3cc4c(c([C@@H]5CCCN5)c3)CN(C(=O)N3CCOC(C(F)(F)F)C3)CC4)cc12 (stereo partly drawn) [Compound Z497, [6-(3-methyl-1H-pyrrolo[2,3-b]pyridin-5-yl)-8-[(S)-pyrrolidin-2-yl]-3,4-dihydro-isoquinolin-2(1H)-yl]-[2-(trifluoromethyl)morpholin-4-yl]methanone] |
| 76 | 0.36 | Cc1c[nH]c2ncc(-c3cc4c(c([C@@H]5COCCN5)c3)CN(C(=O)N3CCC(F)(F)CC3)CC4)nc12 [Compound Z624, (R)-(4,4-difluoropiperidin-1-yl)(6-(7-methyl-5H-pyrrolo[2,3-b]pyrazin-2-yl)-8-(morpholin-3-yl)-3,4-dihydroisoquinolin-2(1H)-yl)methanone] |
| 82.1 | 0.21 | O=C(N1CCc2cc(-c3cnc4[nH]cc(Cl)c4c3)cc([C@@H]3COCCN3)c2C1)N1C2CCC1COC2 [Compound Z489, (3-oxa-8-azabicyclo[3.2.1]octan-8-yl)(6-(3-chloro-1H-pyrrolo[2,3-b]pyridin-5-yl)-8-((R)-morpholin-3-yl)-3,4-dihydroisoquinolin-2(1H)-yl)methanone] |
| 105 | 0.22 | Cc1c[nH]c2ncc(-c3cc4c(c([C@@H]5COCCN5)c3)CN(C(=O)N3C[C@@H](C)O[C@H](C)C3)CC4)cc12 [Compound Z552, ((2R,6R)-2,6-dimethylmorpholine)(6-(3-methyl-1H-pyrrolo[2,3-b]pyridin-5-yl)-8-((R)-morpholin-3-yl)-3,4-dihydroisoquinolin-2(1H)-yl)methanone] |
| 130 | 0.22 | Cc1c[nH]c2ncc(-c3cc4c(c([C@@H]5COCCN5)c3)CN(C(=O)N3C[C@H]5C[C@@H]3CO5)CC4)cc12 [Compound Z518] |

Source: patent publication US20250084078A1, “FUSED RING-SUBSTITUTED SIX-MEMBERED HETEROCYCLIC COMPOUND, AND PREPARATION METHOD THEREFOR AND USE THEREOF” (GENFLEFT THERAPEUTICS (SHANGHAI) INC., priority 2022, published 2025)
